Reference: PubChem BioAssay AID743426 (The Scripps Research Institute Molecular Screening Center, 2014)
Active and inactive are the calls of the source. No rule for the calls is given here.

Biological target: Sphingosine 1-phosphate receptor 1 (Homo sapiens) (UniProt P21453)
Experiment: S1P1 receptor activation, potency – cell-based, fluorescence, late-stage, counter-screen for S1PR3 antagonist project, dose response (AID 743426)
Conditions: S1P1-expressing cells, agonist counterscreen

Sequence of Sphingosine 1-phosphate receptor 1 (Homo sapiens) (P21453 whole entry, looked up): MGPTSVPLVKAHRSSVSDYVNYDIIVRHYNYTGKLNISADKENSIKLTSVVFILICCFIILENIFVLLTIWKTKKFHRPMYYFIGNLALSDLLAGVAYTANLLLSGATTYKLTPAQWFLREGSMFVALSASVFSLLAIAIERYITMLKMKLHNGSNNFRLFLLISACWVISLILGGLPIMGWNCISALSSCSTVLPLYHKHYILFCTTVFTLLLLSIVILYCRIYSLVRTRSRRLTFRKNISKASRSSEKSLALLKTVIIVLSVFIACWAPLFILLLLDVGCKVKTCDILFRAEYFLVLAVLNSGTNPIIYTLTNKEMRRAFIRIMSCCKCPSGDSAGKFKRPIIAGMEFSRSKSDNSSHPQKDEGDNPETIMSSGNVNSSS

EC50	SMILES
> 50 µM (inactive)	O=C(NC(c1ccc(Cl)cc1)c1nc(-c2ccccc2)no1)c1ccc(Cl)c(Br)c1 (configuration not stated)
> 50 µM (inactive)	Cc1ccc(C(=O)NC(c2ccccc2)c2nc(-c3ccccc3)no2)cc1 (configuration not stated)
> 50 µM (inactive)	O=C(NC(c1ccc(Cl)cc1)c1nc(-c2ccccc2)no1)c1ccc(Cl)c(Cl)c1 (configuration not stated)
> 50 µM (inactive)	O=C(NC(c1ccc(Cl)cc1)c1nc(-c2ccccc2)no1)c1cccc(Cl)c1 (configuration not stated)
> 50 µM (inactive)	O=C(NC(c1ccc(Cl)cc1)c1nc(-c2ccccc2)no1)c1cccc(Br)c1 (configuration not stated)
> 50 µM (inactive)	CCc1ccc(C(NC(=O)c2cccc(Cl)c2)c2nc(-c3ccccc3)no2)cc1 (configuration not stated)
> 50 µM (inactive)	O=C(NC(c1ccc(Cl)c(Cl)c1)c1nc(-c2ccccc2)no1)c1cccc(Cl)c1 (configuration not stated)
> 50 µM (inactive)	O=C(NC(c1ccc(Cl)c(Cl)c1)c1nc(-c2ccccc2)no1)c1ccc(Cl)cc1 (configuration not stated)
> 50 µM (inactive)	Cc1ccc(C(NC(=O)c2cccc(Cl)c2)c2nc(-c3ccccc3)no2)cc1 (configuration not stated)
> 50 µM (inactive)	O=C(NC(c1ccccc1)c1nc(-c2ccccc2)no1)c1ccc(Cl)cc1 (configuration not stated)
> 50 µM (inactive)	O=C(NC(c1ccc(Br)cc1)c1nc(-c2ccccc2)no1)c1ccc(Cl)c(Cl)c1 (configuration not stated)
> 50 µM (inactive)	O=C(NC(c1ccc(Cl)c(Cl)c1)c1nc(-c2ccccc2)no1)c1ccccc1 (configuration not stated)
inactive	O=C(NC(Cc1ccccc1)c1nc(-c2ccccc2)no1)c1cccc(Cl)c1 (configuration not stated)
> 50 µM (inactive)	O=C(NC(c1ccc(Cl)c(Cl)c1)c1nc(-c2ccccc2)no1)c1ccc(Cl)c(Cl)c1 (configuration not stated)
> 50 µM (inactive)	O=C(NC(c1cccc(Cl)c1)c1nc(-c2ccccc2)no1)c1cccc(Cl)c1 (configuration not stated)
> 50 µM (inactive)	O=C(NC(c1ccc(Cl)cc1)c1nc(-c2cccc(Cl)c2)no1)c1cccc(Cl)c1 (configuration not stated)
inactive	O=C(c1cccc(Cl)c1)N(CCO)C(c1ccc(Cl)c(Cl)c1)c1nc(-c2ccccc2)no1 (configuration not stated)
inactive	O=C(NC(c1ccccc1)c1nc(-c2ccccc2)no1)c1cccc(Cl)n1 (configuration not stated)
> 50 µM (inactive)	O=C(NC(c1cccc(Cl)c1)c1nc(-c2ccccc2)no1)c1ccc(Cl)c(Cl)c1 (configuration not stated)
> 50 µM (inactive)	O=C(NC(c1cccc(Cl)c1)c1nc(-c2ccccc2)no1)c1cc(Cl)cc(Cl)c1 (configuration not stated)
> 50 µM (inactive)	O=C(NC(c1ccccc1)c1nc(-c2ccccc2)no1)c1cccc(Cl)c1 (configuration not stated)
> 50 µM (inactive)	N#Cc1ccc(C(=O)NC(c2ccc(Cl)c(Cl)c2)c2nc(-c3ccccc3)no2)cc1 (configuration not stated)
> 50 µM (inactive)	O=C(NC(c1nc(-c2ccccc2)no1)C1CCCCC1)c1ccc(Cl)c(Cl)c1 (configuration not stated)
> 50 µM (inactive)	O=C(NC(c1nc(-c2ccccc2)no1)C1CCOCC1)c1ccc(Cl)c(Cl)c1 (configuration not stated)
inactive	O=C(NC(c1ccccc1)c1nc(-c2ccccc2)no1)c1cccc(Br)c1 (configuration not stated)
> 50 µM (inactive)	COc1ccc(C(=O)NC(c2ccccc2)c2nc(-c3ccccc3)no2)cc1 (configuration not stated)
> 50 µM (inactive)	O=C(NC(c1ccc(Cl)cc1)c1nc(-c2ccccn2)no1)c1cccc(Cl)c1 (configuration not stated)
